Data as given in the supplement of paper PMC10307832.

Key:
Experiment in all cases: relative viability (nuclei count vs DMSO), 5 days (fraction); higher = more cells survive
RU-SKI 43 + Dasatinib = compound: CC[C@@H](C)CNCC(=O)N1CCC2=C([C@@H]1COC3=CC=CC(=C3)C)C=CS2 [RU-SKI 43] + Cc1nc(Nc2ncc(C(=O)Nc3c(C)cccc3Cl)s2)cc(N2CCN(CCO)CC2)n1 [Dasatinib] (partner 0.075 µM)
Procedure, shortened: (§1)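 After 5 days of treatment, lung cancer cells in 1536-well plates were fixed and stained in a single step (final 0.05% Triton X-100, 1% formaldehyde, 1 ug/ml Hoechst) and their nuclei counted on 4× images. Treatment had been applied by pin tool the day after seeding as one drug alone or as a fixed anchor-drug dose with five library-drug doses (not always all listed) in √10 steps. Relative viability is the nuclei count of treated wells divided by that of vehicle wells, and values are medians of duplicate plates.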

Irinotecan + Palbociclib = compound: CCc1c2c(nc3ccc(OC(=O)N4CCC(N5CCCCC5)CC4)cc13)-c1cc3c(c(=O)n1C2)COC(=O)[C@]3(O)CC [Irinotecan] + CC(=O)c1c(C)c2cnc(Nc3ccc(N4CCNCC4)cn3)nc2n(C2CCCC2)c1=O [Palbociclib] (partner 0.5 µM)
Procedure, shortened: as §1

Irinotecan + Navitoclax = compound: CCc1c2c(nc3ccc(OC(=O)N4CCC(N5CCCCC5)CC4)cc13)-c1cc3c(c(=O)n1C2)COC(=O)[C@]3(O)CC [Irinotecan] + CC1(C)CCC(c2ccc(Cl)cc2)=C(CN2CCN(c3ccc(C(=O)NS(=O)(=O)c4ccc(N[C@H](CCN5CCOCC5)CSc5ccccc5)c(S(=O)(=O)C(F)(F)F)c4)cc3)CC2)C1 [Navitoclax] (partner 0.5 µM)
Procedure, shortened: as §1

MK-8033 + AZD7762 = compound: Cn1cc(-c2cnc3ccc4ccc(CS(=O)(=O)NCc5ccccn5)cc4c(=O)c3c2)cn1 [MK-8033] + NC(=O)Nc1cc(-c2cccc(F)c2)sc1C(=O)N[C@H]1CCCNC1 [AZD7762] (partner 0.2 µM)
Procedure, shortened: as §1

Row | Cell Line | relative viability (RU-SKI 43 + Dasatinib; first compound 0.1 µM) | relative viability (RU-SKI 43 + Dasatinib; first compound 0.3162 µM) | relative viability (RU-SKI 43 + Dasatinib; first compound 1 µM) | relative viability (RU-SKI 43 + Dasatinib; first compound 3.162 µM) | relative viability (RU-SKI 43 + Dasatinib; first compound 10 µM) | relative viability (Irinotecan + Palbociclib; first compound 0.6325 µM) | relative viability (Irinotecan + Palbociclib; first compound 2 µM) | relative viability (Irinotecan + Palbociclib; first compound 6.325 µM) | relative viability (Irinotecan + Palbociclib; first compound 20 µM) | relative viability (Irinotecan + Navitoclax; first compound 0.6325 µM) | relative viability (Irinotecan + Navitoclax; first compound 2 µM) | relative viability (Irinotecan + Navitoclax; first compound 6.325 µM) | relative viability (Irinotecan + Navitoclax; first compound 20 µM) | relative viability (MK-8033 + AZD7762; first compound 0.02 µM) | relative viability (MK-8033 + AZD7762; first compound 0.06325 µM) | relative viability (MK-8033 + AZD7762; first compound 0.2 µM) | relative viability (MK-8033 + AZD7762; first compound 0.6325 µM) | relative viability (MK-8033 + AZD7762; first compound 2 µM)
1 | HOP-62 | 0.741 | 0.709 | 0.875 | 0.641 | 0.603 | 0.211 | 0.202 | 0.187 | 0.22 | 0.624 | 0.598 | 0.176 | 0.177 | 0.67 | 0.722 | 0.464 | 0.471 | 0.578
2 | IA-LM | – | – | – | – | – | – | – | – | – | 0.574 | 0.246 | 0.15 | 0.0454 | – | – | – | – | –
3 | LC-2-ad | 0.587 | 0.634 | 0.77 | 0.605 | 0.552 | 0.407 | 0.371 | 0.316 | 0.251 | 0.287 | 0.282 | 0.169 | 0.167 | 0.832 | 0.783 | 0.78 | 0.843 | 0.827
4 | LCLC-97TM1 | 0.961 | 0.919 | 0.974 | 0.811 | 0.796 | 0.114 | 0.0978 | 0.113 | 0.108 | 0.254 | 0.256 | 0.218 | 0.163 | 0.248 | 0.338 | 0.268 | 0.227 | 0.222
5 | LCLC-103H | 0.502 | 0.481 | 0.64 | 0.453 | 0.49 | 0.452 | 0.412 | 0.446 | 0.5 | – | – | – | – | 0.756 | 0.712 | 0.788 | 0.741 | 0.82
6 | NCI-H358 | 0.166 | 0.127 | 0.131 | 0.151 | 0.167 | 0.123 | 0.143 | 0.108 | 0.0947 | – | – | – | – | 0.541 | 0.347 | 0.431 | 0.428 | 0.458
7 | NCI-H520 | 0.188 | 0.233 | 0.297 | 0.272 | 0.191 | 0.224 | 0.242 | 0.214 | 0.146 | 0.851 | 0.634 | 0.288 | 0.227 | – | – | – | – | –
8 | NCI-H522 | 0.896 | 0.954 | 1.11 | 1.03 | 0.828 | 0.872 | 0.585 | 0.413 | 0.475 | – | – | – | – | 0.831 | 0.748 | 0.809 | 0.881 | 0.97
9 | NCI-H596 | 0.635 | 0.646 | 0.62 | 0.653 | 0.587 | – | – | – | – | 0.932 | 0.752 | 0.412 | 0.443 | 1.04 | 0.995 | 1.01 | 1.04 | 0.985
10 | NCI-H650 | 0.484 | 0.45 | 0.468 | 0.398 | 0.45 | 0.188 | 0.195 | 0.19 | 0.257 | – | – | – | – | 0.947 | 0.997 | 0.982 | 0.945 | 0.985
11 | NCI-H661 | 0.923 | 0.964 | 0.931 | 0.83 | 0.843 | 0.397 | 0.435 | 0.457 | 0.142 | – | – | – | – | – | – | – | – | –
12 | NCI-H1299 | – | – | – | – | – | – | – | – | – | 0.886 | 0.845 | 0.431 | 0.303 | – | – | – | – | –
13 | NCI-H1563 | 0.4 | 0.409 | 0.534 | 0.404 | 0.467 | – | – | – | – | – | – | – | – | – | – | – | – | –
14 | NCI-H1623 | 0.513 | 0.514 | 0.668 | 0.541 | 0.468 | – | – | – | – | – | – | – | – | – | – | – | – | –
15 | NCI-H1648 | – | – | – | – | – | 0.254 | 0.303 | 0.346 | 0.355 | – | – | – | – | 0.6 | – | 0.533 | 0.702 | 0.769
16 | NCI-H1650 | 0.356 | 0.362 | 0.373 | 0.36 | 0.279 | 0.184 | 0.305 | 0.285 | 0.101 | 1.07 | 0.808 | 0.394 | 0.316 | – | – | – | – | –
17 | NCI-H1703 | – | – | – | – | – | – | – | – | – | 1.16 | 1.45 | 0.514 | 0.105 | 0.109 | 0.117 | 0.124 | 0.108 | 0.12
18 | NCI-H2009 | 0.314 | 0.296 | 0.324 | 0.289 | 0.276 | 0.197 | 0.317 | 0.147 | 0.0702 | 0.802 | 0.58 | 0.19 | 0.148 | – | – | – | – | –
19 | NCI-H2023 | 0.581 | 0.835 | 0.649 | 0.599 | 0.61 | 0.503 | 0.385 | 0.248 | 0.077 | 1 | 0.812 | 0.277 | 0.103 | – | – | – | – | –
20 | NCI-H2228 | 0.74 | 0.658 | 0.486 | 0.555 | 0.425 | 0.453 | 0.664 | 0.393 | 0.456 | 0.875 | 0.529 | 0.405 | 0.51 | – | – | – | – | –
21 | NCI-H2342 | 0.34 | 0.313 | 0.321 | 0.319 | 0.317 | 0.557 | 0.486 | 0.509 | 0.495 | – | – | – | – | 0.636 | 0.438 | 0.454 | 0.454 | 0.646
22 | SK-LU-1 | 0.163 | 0.172 | 0.172 | 0.194 | 0.159 | 0.35 | 0.354 | 0.299 | 0.336 | 0.225 | 0.334 | 0.296 | 0.263 | – | – | – | – | –
23 | SK-MES-1 | 0.336 | 0.358 | 0.357 | 0.342 | 0.388 | 0.354 | 0.342 | 0.291 | 0.175 | 1.29 | 1.22 | 0.226 | 0.208 | – | – | – | – | –
24 | SW 900 | 0.565 | 0.679 | 0.769 | 0.46 | 0.423 | – | 0.42 | 0.274 | 0.416 | – | – | – | – | 0.575 | 0.487 | 0.564 | 0.621 | 0.498
25 | SW 1573 | 0.558 | 0.816 | 0.497 | 0.491 | 0.311 | – | 0.329 | 0.181 | 0.101 | 0.694 | 0.601 | 0.139 | 0.156 | – | – | – | – | –
